# Experimental data taken from patent publication US20170247458A1, “Safety for Treating Cancers with a Glycosylated Chimeric Antibody to EGFR” (Sorrento Therapeutics, Inc., priority 2016, published 2017).
# Legend:
# [1] = human, in vivo
# [2] = tested on: EGFR positive, metastatic colorectal cancer; experiment: Phase 2/3 study, radiologic response and survival
# [3] = Phase 2/3 study, safety evaluation and adverse events; settings: Table 7
smiles,measurement,setting,value
"CCc1c2c(nc3ccc(OC(=O)N4CCC(N5CCCCC5)CC4)cc13)-c1cc3c(c(=O)n1C2)COC(=O)[C@]3(O)CC [Irinotecan monotherapy, irinotecan]","At least one ADR, number of patients",[1],126
same,"At least one ADR, share of patients",[1],74.1%
same,"At least one AE which lead to stop drug treatment, number of patients",[1],27
same,"At least one AE which lead to stop drug treatment, share of patients",[1],15.9%
same,"At least one AE, number of patients",[1],148
same,"At least one AE, share of patients",[1],87.1%
same,"At least one Level □ or above ADR, number of patients",[1],10
same,"At least one Level □ or above ADR, share of patients",[1],5.9%
same,"At least one Level □ or above AE, number of patients",[1],12
same,"At least one Level □ or above AE, share of patients",[1],7.1%
same,"At least one Level □ or above important AE, number of patients",[1],11
same,"At least one Level □ or above important AE, share of patients",[1],6.5%
same,"At least one SAE, number of patients",[1],8
same,"At least one SAE, share of patients",[1],4.7%
same,"At least one important AE, number of patients",[1],120
same,"At least one important AE, share of patients",[1],70.6%
same,"At least one test drug-related SAE, number of patients",[1],1
same,"At least one test drug-related SAE, share of patients",[1],0.6%
same,"Grade 3-4 Abdominal pain, number",[1],0
same,"Grade 3-4 Acne-like rash, number",[1],0
same,"Grade 3-4 Anemia, number",[1],3
same,"Grade 3-4 Anemia, value in parentheses",[1],(1.8)
same,"Grade 3-4 Asthenia, number",[1],6
same,"Grade 3-4 Asthenia, value in parentheses",[1],(3.7)
same,"Grade 3-4 Diarrhea, number",[1],12
same,"Grade 3-4 Diarrhea, value in parentheses",[1],(7.3)
same,"Grade 3-4 Fever, number",[1],1
same,"Grade 3-4 Fever, value in parentheses",[1],(0.9)
same,"Grade 3-4 Nausea and vomiting, number",[1],16
same,"Grade 3-4 Nausea and vomiting, value in parentheses",[1],(9.8)
same,"Grade 3-4 Neutropenia, number",[1],14
same,"Grade 3-4 Neutropenia, value in parentheses",[1],(8.5)
same,"Grade 3-4 Stomatitis, number",[1],0
same,"Grade 3-4 Thrombocytopenia, number",[1],0
same,"Grade 3-4 adverse events, Any, number",[1],57
same,"Complete response, number of patients",[2]; Ph2/3 trial,1
same,"Complete response, rate in parentheses",[2]; Ph2/3 trial,0.6
same,"Partial response, number of patients",[2]; Ph2/3 trial,20
same,"Partial response, rate in parentheses",[2]; Ph2/3 trial,12.2
same,"Progressive disease, number of patients",[2]; Ph2/3 trial,44
same,"Progressive disease, rate in parentheses",[2]; Ph2/3 trial,26.8
same,"Stable disease, number of patients",[2]; Ph2/3 trial,86
same,"Stable disease, rate in parentheses",[2]; Ph2/3 trial,52.4
same,Time to disease progression,[2]; Ph2/3 trial,4.1 months
same,"Unable to evaluate, number of patients",[2]; Ph2/3 trial,13
same,"Unable to evaluate, rate in parentheses",[2]; Ph2/3 trial,7.9
same,"Overall response rate, number of patients",[2]; sum of CR and PR,21
same,"Overall response rate, rate in parentheses","[2]; sum of CR and PR, interval in brackets not copied",12.8
same,"Disease control rate, number of patients","[2]; sum of CR, PR and SD",107
same,"Disease control rate, rate in parentheses","[2]; sum of CR, PR and SD, interval in brackets not copied",65.2
same,"Test drug-related death AE, number of patients",[3],0
